Laboratory results as given in US9018248B2, “Fatty acid derivatives of catechins and methods of their use” (Genesis Group Inc., priority 2010, dated 2015).

Assays:
[1] = Bulk oil system, stripped corn oil, Rancimat; settings: PF=IPsample/IPcontrol; Rancimat 100° C., 1 μmol in 3 g oil
Method: One milliliter of EGCG and its derivatives dissolved in ethanol (1 μmol/ml) was transferred into a reaction vessel, followed by evaporation of the solvent to dryness under a stream of nitrogen. To each vessel (an empty vessel was used as control) 3 g of stripped corn oil (devoid of endogenous antioxidants) were added. The evaluation was carried out under accelerated oxidation in a Rancimat (Metrohm Model 743, Herisau, Switzerland) conditions at 100° C. with an air flow rate of 20 l/h. Lipid oxidation in the absence and presence of test compounds was monitored by changes in electrical conductivity, arising from the formation of volatile oxidation products. The induction periods (IP, time to reach a sudden increase in oxidation rate) were recorded. […] Antioxidant activity was interpreted as protection factor (PF), which was calculated as follow. PF=IPsample/IPcontrol where, IPsample and IPcontrol represent induction periods for the oil with and without test compounds, respectively. Discussion

[2] = Incorporation into liposomes; assay type: physicochemical; settings: 500 μM in ethanol added to MLV, 20 min, 37° C.
Method: Phosphotidylcholine (PC) (25 mg) was dissolved in a small amount of chloroform in a round bottom flask, followed by evaporation of the solvent with a rotary evaporator to obtain a thin layer film on the inner surface of the flask. Trace solvent was removed by nitrogen flush. An aqueous glucose solution (300 mM, 5 ml) was added to the flask, and the content was thoroughly vortexed and sonicated in an ultrosonicator, followed by a repeated freeze-thaw processing (4 times). The liposomal solution was diluted with 45 ml of phosphate buffer saline (PBS, 50 mM, pH7.4) and transferred into a centrifuge tube. The content was centrifuged at 13000 g for 5 min to remove the untrapped glucose. The sediment was re-suspended in 25 ml of PBS to obtain a final liposomal MLV. An aliquot (0.9 ml) of the above MLV was transferred to an Eppendorf tube containing 0.1 ml of test compounds (500 μM in ethanol) or ethanol blank. The content was mixed by vortexing and incubated for 20 min at 37° C. After incubation the mixture was centrifuged at 13000 g for 5 min, and the sediment was washed with 1 ml of 10% ethanol (in PBS), followed by a second centrifugation. The supernatants were combined and absorbance measured at 280 nm. A series of standard solutions in 10% ethanol at different concentrations was prepared for each test compound and their absorbance measured at 280 nm to construct a standard curve (absorbance VS. concentration). The un-incorporated test compounds in the supernatant were quantified using their corresponding standard curve. Percentage incorporation of each compound into the liposomes was calculated according to the following equation: % incorporation=100×(1−amount un-incorporated/amount added)=100×(1−C×2/50) where, C is the concentration of test compounds read from the standard curve. Discussion

COX-2 = COX-2 protein expression in LPS-stimulated RAW 264.7 macrophages (western blot); assay type: cell-based, murine; settings: LPS 100 ng/ml, RAW 264.7, western blot
Method: RAW 264.7 cells were cultured in Rosewell Park Memorial Institute (RPMI) 1640 media (without phenol red) supplemented with 10% endotoxin-free, heat-inactivated fetal calf serum, 100 units/ml penicillin, and 100 μg/ml streptomycin. When the cells reached a density of 2-3×10^6 cells/ml, they were activated by incubation in a medium containing E. coli lipopolysaccharide (LPS) (100 ng/ml). Various concentrations of compounds of the disclosure in dimethyl sulphoxide (DMSO) were added together with LPS. Cells were treated with 0.05% DMSO as the vehicle control. The stimulated murine macrophage cell line RAW 264.7 cells were washed with PBS and lysed in an ice-cold RIPA buffer (Tris-HCl, pH 7.2, 25 mM; 0.1% SDS; 1% Triton X-100; 1% sodium deoxycholate; 0.15 M NaCl; 1 mM EDTA) containing 1 mM phenylmethyl sulphonyl fluoride (PMSF), 10 μg/mL aprotinin, 1 mM sodium ortho-vanadate, and 5 μg/mL leupeptin. Protein concentrations were determined using the BCA method (Pierce, Rockford, Ill.). The samples (50 μg of protein) were mixed with 5-fold of sample buffer containing 0.3 M Tris-HCl (pH 6.8), 25% 2-mercaptoethanol, 12% sodium dodecyl sulphate (SDS), 25 mM EDTA, 20% glycerol, and 0.1% bromophenol blue. The mixtures were boiled at 100° C. for 5 min, prerun on a stacking gel, and then resolved by 12% SDS-polyacrylamide minigels at a constant current of 20 mA. For western blot, proteins on the gel were electro-transferred onto a […] immobile polyvinylidene fluoride (PVDF) membrane with a transfer buffer composed of 25 mM Tris-HCl (pH 8.9), 192 mM glycine, and 20% methanol, as described by Pan et al. (2000). Membrane blocking was then carried out at room temperature for 1 h in blocking solution (20 mM Tris-HCl pH 7.4, 125 mM NaCl, 0.2% Tween 20, 1% bovine serum albumin, and 0.1% sodium azide). The membrane was incubated with the primary antibody of iNOS and COX-2 at 4° C. overnight. The membranes were subsequently probed with selected IgG antibody conjugated to horseradish peroxidase (Transduction Laboratories, Lexington, Ky.) and visualized using enhanced chemiluminescence (ECL, Amersham). The densities of the bands were quantitated using a densitometer (AlphaImager 2200 System). All the membranes were stripped and reprobed for β-actin (Sigma Chemical Co., St. Louis, Mo.) as loading control. […] The inhibition of iNOS induction by compounds of the disclosure may be due to down regulation of iNOS gene expression. EGCG and compounds of the disclosure with antioxidant activities may inhibit the ROS/RNS-mediated activation of NF-κB, the transcription factor that promotes gene expression of iNOS. […] The difference in their ability to inhibit production of iNOS and COX-2 may be due to other mechanisms involved in addition to blocking the NF-κB signalling pathway. EGCG and its derivatives may also suppress the cytokine production by breaking down the mRNA and protein of iNOS and COX-2 to varied degrees. (7b) Inhibition Against LPS-Induced NO Production in RAW 264.7 Macrophage The LPS-induced NO production by the macrophages was determined as nitrite concentration in the culture medium according to the Griess reaction. The culture medium of the control and treated cells was collected and centrifuged. An aliquot (100 μL) of the supernatant was mixed with an equal volume of Griess reagent. The absorbance of the mixture at 550 nm was measured with an ELISA plate reader (Dynatech MR-7000; Dynatech Laboratories, Chantilly, Va., USA). […]

iNOS = iNOS protein expression in LPS-stimulated RAW 264.7 macrophages (western blot); assay type: cell-based, murine; settings: LPS 100 ng/ml, RAW 264.7, western blot; 20 and 40 μM for 1a-1c
Method: RAW 264.7 cells were cultured in Rosewell Park Memorial Institute (RPMI) 1640 media (without phenol red) supplemented with 10% endotoxin-free, heat-inactivated fetal calf serum, 100 units/ml penicillin, and 100 μg/ml streptomycin. When the cells reached a density of 2-3×10^6 cells/ml, they were activated by incubation in a medium containing E. coli lipopolysaccharide (LPS) (100 ng/ml). Various concentrations of compounds of the disclosure in dimethyl sulphoxide (DMSO) were added together with LPS. Cells were treated with 0.05% DMSO as the vehicle control. The stimulated murine macrophage cell line RAW 264.7 cells were washed with PBS and lysed in an ice-cold RIPA buffer (Tris-HCl, pH 7.2, 25 mM; 0.1% SDS; 1% Triton X-100; 1% sodium deoxycholate; 0.15 M NaCl; 1 mM EDTA) containing 1 mM phenylmethyl sulphonyl fluoride (PMSF), 10 μg/mL aprotinin, 1 mM sodium ortho-vanadate, and 5 μg/mL leupeptin. Protein concentrations were determined using the BCA method (Pierce, Rockford, Ill.). The samples (50 μg of protein) were mixed with 5-fold of sample buffer containing 0.3 M Tris-HCl (pH 6.8), 25% 2-mercaptoethanol, 12% sodium dodecyl sulphate (SDS), 25 mM EDTA, 20% glycerol, and 0.1% bromophenol blue. The mixtures were boiled at 100° C. for 5 min, prerun on a stacking gel, and then resolved by 12% SDS-polyacrylamide minigels at a constant current of 20 mA. For western blot, proteins on the gel were electro-transferred onto a […] immobile polyvinylidene fluoride (PVDF) membrane with a transfer buffer composed of 25 mM Tris-HCl (pH 8.9), 192 mM glycine, and 20% methanol, as described by Pan et al. (2000). […] The densities of the bands were quantitated using a densitometer (AlphaImager 2200 System). […] (7b) Inhibition Against LPS-Induced NO Production in RAW 264.7 Macrophage The LPS-induced NO production by the macrophages was determined as nitrite concentration in the culture medium according to the Griess reaction. […] The absorbance of the mixture at 550 nm was measured with an ELISA plate reader (Dynatech MR-7000; Dynatech Laboratories, Chantilly, Va., USA). […]

% incorporation into liposomes [2] [%]	Compound	Protection Factor (PF) [1]	Inhibition of COX-2 protein expression (COX-2)	Inhibition of iNOS protein expression (iNOS)
91.19	CCCCCCCCCCCCCCCCCC(=O)Oc1cc(C(=O)OC2Cc3c(O)cc(O)cc3OC2c2cc(OC(=O)CCCCCCCCCCCCCCCCC)c(O)c(OC(=O)CCCCCCCCCCCCCCCCC)c2)cc(OC(=O)CCCCCCCCCCCCCCCCC)c1O (centres unmarked) [Compound 1a, EGCG stearate]	2.38	decreased in the order of 1a>1b>EGCG>1c	
71.81	CCC=CCC=CCC=CCC=CCC=CCCCC(=O)Oc1cc(C(=O)OC2Cc3c(O)cc(O)cc3OC2c2cc(OC(=O)CCCC=CCC=CCC=CCC=CCC=CCC)c(O)c(OC(=O)CCCC=CCC=CCC=CCC=CCC=CCC)c2)cc(OC(=O)CCCC=CCC=CCC=CCC=CCC=CCC)c1O (centres unmarked) [Compound 1b]	0.82	decreased in the order of 1a>1b>EGCG>1c	strong dose-dependent relationship in suppressing the cytokine production
80.91	CCC=CCC=CCC=CCC=CCC=CCC=CCCC(=O)Oc1cc(C(=O)OC2Cc3c(O)cc(O)cc3OC2c2cc(OC(=O)CCC=CCC=CCC=CCC=CCC=CCC=CCC)c(O)c(OC(=O)CCC=CCC=CCC=CCC=CCC=CCC=CCC)c2)cc(OC(=O)CCC=CCC=CCC=CCC=CCC=CCC=CCC)c1O (centres unmarked) [Compound 1c]	0.77	decreased in the order of 1a>1b>EGCG>1c	the most potent in inhibiting the induction of iNOS expression

Compound	% incorporation into liposomes [2] [%]	Protection Factor (PF) [1]	Inhibition of COX-2 protein expression (COX-2)	Inhibition of iNOS protein expression (iNOS)
O=C(O[C@@H]1Cc2c(O)cc(O)cc2O[C@@H]1c1cc(O)c(O)c(O)c1)c1cc(O)c(O)c(O)c1 [EGCG, Epigallocatechin gallate, reference compound]	65.17	1.40	decreased in the order of 1a>1b>EGCG>1c	
